In patent publication US11419335B2, “N-arylated analogues and uses thereof” (University of Florida Research Foundation, Incorporated, priority 2016, dated 2022):
Like-named read-outs stand apart in the source and are kept apart here. Marks after values point to notes of the source that are not given here.

Experiments:
[1] = test system: SA-138 (clinical isolate); experiment: MIC broth microdilution, SA-138; type: cell-based, Staphylococcus aureus
Description: (§1) The minimum inhibitory concentration (MIC) for each tested compound was determined by the broth microdilution method as recommended by the Clinical and Laboratory Standards Institute (CLSI). In a 96-well plate, eleven two-fold serial dilutions of each compound were made in a final volume of 100 μL Luria Broth. Each well was inoculated with ˜10^5 bacterial cells at the initial time of incubation, prepared from a fresh log phase culture (OD600 of 0.5 to 1.0 depending on bacterial strain). […] (MIC values were supported by spectrophotometric readings at OD600). DMSO served as our vehicle and negative control in each microdilution MIC assay. DMSO was serially diluted with a top concentration of 1% v/v.
(§2) Each well was inoculated with ˜10^5 bacterial cells at the initial time of incubation, prepared from a fresh log phase culture (OD600 of 0.5 to 1.0 depending on bacterial strain). […] The concentration range tested for each compound during this study was 0.10 to 100 μM. DMSO served as our vehicle and negative control in each microdilution MIC assay. DMSO was serially diluted with a top concentration of 1% v/v. All MIC values were obtained from a minimum of three independent experiments.

[2] = test system: Pseudomonas aeruginosa (PAO1); experiment: MIC broth microdilution, PAO1; type: cell-based
Description: (§3) The minimum inhibitory concentration (MIC) for each tested compound was determined by the broth microdilution method as recommended by the Clinical and Laboratory Standards Institute (CLSI). In a 96-well plate, eleven two-fold serial dilutions of each compound were made in a final volume of 100 μL Luria Broth. Each well was inoculated with ˜10^5 bacterial cells at the initial time of incubation, prepared from a fresh log phase culture (OD600 of 0.5 to 1.0 depending on bacterial strain). The MIC was defined as the lowest concentration of compound that prevented bacterial growth after incubating 16 to 18 hours at 37° C. (MIC values were supported by spectrophotometric readings at OD600). DMSO served as our vehicle and negative control in each microdilution MIC assay. DMSO was serially diluted with a top concentration of 1% v/v.
as §3, with “for each compound was” for “for each tested compound was”, “Standards Institute (CLSI).^6 In a” for “Standards Institute (CLSI). In a”, “concentration of test compound that” for “concentration of compound that”, “37° C. The concentration range tested for each compound during this study was 0.10 to 100 μM. DMSO served” for “37° C. (MIC values were supported by spectrophotometric readings at OD600). DMSO served”, “1% v/v. All MIC values were obtained from a minimum of three independent experiments.” for “1% v/v.”

[3] = test system: vancomycin-resistant Enterococcus faecium (VRE strain ATCC 700221); experiment: MIC broth microdilution, VRE 700221; type: cell-based; conditions: for MIC E. faecium VRE 700221: Table 1A; for VRE MIC: Table 2A; for MIC VRE 700221: Table 4
Description: as §3
as §3, with “for each compound was” for “for each tested compound was”, “Standards Institute (CLSI).^6 In a” for “Standards Institute (CLSI). In a”, “concentration of test compound that” for “concentration of compound that”, “37° C. The concentration range tested for each compound during this study was 0.10 to 100 μM. DMSO served” for “37° C. (MIC values were supported by spectrophotometric readings at OD600). DMSO served”, “1% v/v. All MIC values were obtained from a minimum of three independent experiments.” for “1% v/v.”

[4] = test system: methicillin-sensitive Staphylococcus aureus ATCC 29213; experiment: MIC broth microdilution, S. aureus 29213; type: cell-based
Description: as §1, §2

[5] = test system: SA-147 (clinical isolate); experiment: MIC broth microdilution, SA-147; type: cell-based, Staphylococcus aureus
Description: as §1, §2

[6] = test system: methicillin-resistant Staphylococcus epidermidis (MRSE strain ATCC 35984); experiment: MIC broth microdilution, MRSE 35984; type: cell-based; conditions: for MIC S. epidermidis MRSE 35984: Table 1A; for MIC: Table 2A, read-out: MRSE 35984 MIC; for MIC MRSE 35984: Table 4
Description: as §3
as §3, with “for each compound was” for “for each tested compound was”, “Standards Institute (CLSI).^6 In a” for “Standards Institute (CLSI). In a”, “concentration of test compound that” for “concentration of compound that”, “37° C. The concentration range tested for each compound during this study was 0.10 to 100 μM. DMSO served” for “37° C. (MIC values were supported by spectrophotometric readings at OD600). DMSO served”, “1% v/v. All MIC values were obtained from a minimum of three independent experiments.” for “1% v/v.”

[7] = test system: SA-156 (clinical isolate); experiment: MIC broth microdilution, SA-156; type: cell-based, Staphylococcus aureus
Description: as §1, §2

[8] = test system: Acinetobacter baumannii (ATCC 1794); experiment: MIC broth microdilution, A. baumannii 1794; type: cell-based; conditions: for MIC A. baumannii 1794: Table 1A, in µM; for MIC A. bau. 1794: Table 4
Description: as §3
as §3, with “for each compound was” for “for each tested compound was”, “Standards Institute (CLSI).^6 In a” for “Standards Institute (CLSI). In a”, “concentration of test compound that” for “concentration of compound that”, “37° C. The concentration range tested for each compound during this study was 0.10 to 100 μM. DMSO served” for “37° C. (MIC values were supported by spectrophotometric readings at OD600). DMSO served”, “1% v/v. All MIC values were obtained from a minimum of three independent experiments.” for “1% v/v.”

[9] = test system: MRSA-1 (clinical isolate); experiment: MIC broth microdilution, MRSA-1; type: cell-based, Staphylococcus aureus
Description: as §1, §2

MRSA BAA-1707 = experiment: MIC broth microdilution, MRSA BAA-1707; type: cell-based, Staphylococcus aureus; conditions: for MIC: read-out: MIC MRSA BAA-1707
Description: as §1, §2

[10] = test system: SA-129 (clinical isolate); experiment: MIC broth microdilution, SA-129; type: cell-based, Staphylococcus aureus
Description: as §1, §2

[11] = test system: methicillin-resistant Staphylococcus aureus MRSA-2 (clinical isolate); experiment: MIC broth microdilution, MRSA-2; type: cell-based; conditions: for MIC: read-out: MIC MRSA-2; for MRSA-2 MIC: Table 2A
Description: as §3
as §3, with “for each compound was” for “for each tested compound was”, “Standards Institute (CLSI).^6 In a” for “Standards Institute (CLSI). In a”, “concentration of test compound that” for “concentration of compound that”, “37° C. The concentration range tested for each compound during this study was 0.10 to 100 μM. DMSO served” for “37° C. (MIC values were supported by spectrophotometric readings at OD600). DMSO served”, “1% v/v. All MIC values were obtained from a minimum of three independent experiments.” for “1% v/v.”

[12] = test system: human red blood cells (hRBC); experiment: Hemolysis of red blood cells; type: cell-based; conditions: for HC50: Table 1A; for RBC HC50: Table 4, concentration required to lyse 50% of red blood cells
Description: The washing was repeated three times with the buffer. In a 96-well plate, test compounds were added to the buffer from DMSO stocks. […] The plate was then incubated for 1 hour at 37° C. After incubation, the plate was centrifuged for 5 minutes at 3,500 rpm. Then 80 μL of the supernatant was transferred to another 96-well plate and the optical density (OD) was read at 405 nm. DMSO served as our negative control (0% hemolysis) while Triton X served as our positive control (100% hemolysis). […] All reported data correspond to three independent experiments. Ten-point dose-response curves were generated in 96-well plates to determine 50% hemolysis (HC50 values) of red blood cells.
The washing was repeated three times with the buffer. In 96-well plate, the test compounds were added to the buffer. Then 50 μL of 2% of hRBCs in the buffer were added to the test plate to make the final concentrations ranging from 0.2 to 200 μM of each test compound. The plate was then incubated for 1 hour at 37° C. After incubation, the plate was centrifuged for 5 minutes at 3500 rpm and then 80 μL of the supernatant was transferred to another 96-well plate and the Optical Density (OD) was read at 405 nm. DMSO served as our negative control (0% haemolysis) and Triton X served as our positive control (100% haemolysis). The HC50 (concentration of test compound required to lyse red blood cells by 50%) was calculated by plotting the dose-response curve (not shown) with Graphpad Prism 6.0. All data were obtained from three independent haemolysis experiments.

MRSA BAA-44 = experiment: MIC broth microdilution, MRSA BAA-44; type: cell-based, Staphylococcus aureus
Description: as §1, §2

MRSA-2 biofilms = experiment: Calgary Biofilm Device assay (MBC/MBEC), MRSA-2; type: cell-based, Staphylococcus aureus; conditions: Table 2A; CBD assay
Description: (§4) The lid of the Calgary device was then removed, washed and transferred to another 96-well plate containing 2-fold serial dilutions of the test compounds (the “challenge plate”). The total volume of media with compound in each well in the challenge plate is 150 μL. […] The lid was then removed from the challenge plate and MBC/MBEC values were determined using different final assays. […] The MBC values were determined as the concentration giving a lack of visible bacterial growth (i.e., turbidity). […] In select experiments, pegs from the Calgary device were removed from lead biofilm eradicators after final incubation, sonicated for 30 minutes in PBS and plated out to determine biofilm cell killing of lead biofilm-eradicating agents (i.e., colony forming unit per milliliter, CFU/mL).
(§5) Using a Calgary Biofilm Device, bacterial biofilms are established on pegs suspended to the bottom of a 96-well plate lid. Following biofilm establishment on lid pegs, lids are then transferred to new 96-well plates containing serial dilutions of test compound and allowed to incubate. After compound treatment, 96-well plate lids with pegs are once again transferred to 96-well plates containing fresh media. During this final phase of the assay, viable biofilms will grow and disperse planktonic cells into the media where they will grow and give a turbid well result. Conversely, wells that have no growth are a result of pegs that had eradicated bacterial biofilms. The lowest concentration at which no turbidity is observed is the minimum biofilm eradication concentration (MBEC). Using the Calgary Biofilm Device, both minimum biofilm eradication concentrations and minimum bactericidal concentrations (MBC) for planktonic bacterial can be determined using one assay from a single bacterial culture (FIG. 3A).

MRSE ATCC 35984 biofilms = experiment: Calgary Biofilm Device assay (MBC/MBEC), MRSE 35984; type: cell-based, Staphylococcus epidermidis; conditions: Table 2A; CBD assay
Description: as §4, §5

VRE ATCC 700221 biofilms = experiment: Calgary Biofilm Device assay (MBC/MBEC), VRE 700221; type: cell-based, Enterococcus faecium; conditions: Table 2A; CBD assay
Description: as §4, §5

MRSA BAA-1707 biofilms = experiment: Calgary Biofilm Device assay (MBC/MBEC), MRSA BAA-1707; type: cell-based, Staphylococcus aureus; conditions: Table 2A; CBD assay
Description: as §4, §5

SMILES	MIC PAO1 ([2]; Table 1A) [µM]	MIC PAO1 ([2]; Table 4) [µM]	MIC E. faecium VRE 700221 [3] [µM]	VRE MIC [3] [µM]	MIC VRE 700221 [3] [µM]	MIC S. epidermidis MRSE 35984 [6] [µM]	MIC [6] [µM]	MIC MRSE 35984 [6] [µM]	MIC A. baumannii 1794 [8]	MIC A. bau. 1794 [8] [µM]	MIC MRSA-2 ([11]; Table 1A) [µM]	MRSA-2 MIC [11] [µM]	MIC MRSA-2 ([11]; Table 4) [µM]	HC50 [12] [µM]	RBC HC50 [12] [µM]	MRSA-2 MBC (MRSA-2 biofilms)	MRSA-2 MBEC (MRSA-2 biofilms)	further results
CCCCCCCCCCCCCCCCn1c(C)[n+](Cc2ccccc2)c2ccccc21.[Br-] [Compound 25]	> 100	>100	1.56	1.56	1.56	3.13	3.13	3.13	>100	>100	3.13	3.13	3.13	10.4	10.4	250 µM	188 µM	MIC ([1]; Table 1B): 6.25 µM; MIC ([1]; Table 3): 6.25 µM; MIC ([4]; Table 1B): 12.5 µM; MIC ([4]; Table 3): 12.5 µM; MIC ([5]; Table 1B): 6.25 µM; MIC ([5]; Table 3): 6.25 µM; MIC ([7]; Table 1B): 12.5 µM; MIC ([7]; Table 3): 12.5 µM; MIC ([9]; Table 1B): 12.5 µM; MIC ([9]; Table 3): 12.5 µM; MIC (MRSA BAA-1707; Table 1B): 12.5 µM; MRSA BAA-1707 MIC (MRSA BAA-1707; Table 2A): 9.38^a μM; MIC (MRSA BAA-1707; Table 3): 12.5 µM; MIC MRSA 1707 (MRSA BAA-1707; Table 4): 9.38a micromolar; MIC ([10]; Table 1B): 3.13 µM; MIC ([10]; Table 3): 3.13 µM; MIC ([11]; Table 1B): 12.5 µM; MIC ([11]; Table 3): 3.13 µM; MIC (MRSA BAA-44; Table 1B): 12.5 µM; MIC (MRSA BAA-44; Table 3): 12.5 µM
CCCCCCCCCCCCCCCCn1cc[n+](Cc2ccc(F)cc2C(F)(F)F)c1C.[Br-] [Compound 16]	> 100	>100	1.56	1.56	1.56	3.13	3.13	3.13	>100	>100	3.13	3.13	3.13	10.7	10.7	62.5/62.5 μM	62.5/62.5 μM	MRSE 35984 MBC (MRSE ATCC 35984 biofilms): 23.5^a/ μM; MRSE 35984 MBEC (MRSE ATCC 35984 biofilms): 23.5^a μM; VRE MBC (VRE ATCC 700221 biofilms): 2.0 µM⁻¹; VRE MBEC (VRE ATCC 700221 biofilms): 3.0^a μM; MRSA BAA-1707 MBC (MRSA BAA-1707 biofilms): 62.5^b/ μM; MRSA BAA-1707 MBEC (MRSA BAA-1707 biofilms): 93.8^a μM
